Test results from paper PMC7582770, “Synthesis of “All-Cis” Trihydroxypiperidines from a Carbohydrate-Derived Ketone: Hints for the Design of New β-Gal and GCase Inhibitors” (Molecules, 2020).
Entries after “also recorded” stand apart in the source; their conditions may differ.

System: human fibroblasts derived from Gaucher patients
Assay: Toxicity / cell viability in Gaucher patient fibroblasts during chaperoning assay
Assay type: cell-based
Conditions: at 50 and 100 µM, 4 days
Method: Fibroblasts with the N370S/RecNcil mutation from patients with Gaucher disease were obtained from the “Cell line and DNA Biobank from patients affected by Genetic Diseases” (Gaslini Hospital, Genova, Italy). Fibroblasts cells (15.0 × 10^4) were seeded in T25 flasks with DMEM supplemented with fetal bovine serum (10%), penicillin/streptomycin (1%), and glutamine (1%) and incubated at 37 °C with 5% CO2 for 24 h. The medium was removed, and fresh medium containing compound 10 was added to the cells and left for 4 days. The medium was removed, and the cells were washed with PBS and detached with trypsin to obtain cell pellets, which were washed four times with PBS, frozen, and lysed by sonication in water. Enzyme activity was measured as reported above. Reported data are mean S.D. (n = 2).
Pharmacological chaperoning activity
Fibroblasts with the N370S/RecNcil mutation from Gaucher disease patients were obtained from the “Cell line and DNA Biobank from patients affected by Genetic Diseases” (Gaslini Hospital, Genova, Italy). Fibroblasts cells (20.0 x 104) were seeded in T25 flasks with DMEM supplemented with fetal bovine serum (10%), penicillin/streptomycin (1%), and glutamine (1%) and incubated at 37 °C with 5% CO2 for 24 h. […] Enzyme activity was measured as reported above. […]

With `CCCCCCCCCCCCN[C@H]1CNC[C@@H](O)[C@H]1O` [compound 10, (3R, 4S, 5S)-3,4-Dihydroxy-5-(Dodecylamino) Piperidine] the “toxicity / cell viability” value was “low cell viability; also recorded: remarkable toxicity”.
